# Experimental data as given in patent US20160256560A1, “Environmentally Sensitive Compositions” (priority 2010, published 2016).
# Read-outs that look alike come from different tables or passages of the source. *1 amine or outer side, *2 acyl side, *3 side chain or, on linkers, in order; H or OH if unused. Where a SMILES comes first, the peptide text is derived from it. Bridges are numbered along the chain shown (N, C = ends). Where no end group is shown, it is not given here. [ ]: non-standard residue; d: D form. ξ: configuration not given here. ξTrp(2-yl) = O=C(C(Cc1c([*:3])[nH]c2ccccc12)N[*:1])[*:2]; X1 = CC(O)(CO)CC(N[*:1])C(=O)[*:2]; Hyp = O=C(O)[CH]1C[CH](O)CN1
# What was measured:
# [1] = Stopped-flow fluorescence and CD kinetics of insertion/folding and exit/unfolding; type: physicochemical
# [2] = Analytical ultracentrifugation, sedimentation velocity; type: physicochemical; conditions: 7 μM, pH 8
# HeLa cells [3] = type: cell-based, human
# HeLa cells [4] = test system: HeLa cells
# GFP fluorescent tumors = conditions: mouse, in vivo
# [5] = mouse, in vivo
# [6] = Solubility / aggregation of pHLIP variants at pH 8
# [7] = type: physicochemical; conditions: absorbance at 300 nm
# Procedure: Peptides were labeled at the C-terminal Cys residues using the membrane-impermeable compound maleimide-PEG2-biotin (Thermo Scientific), which has a long polar spacer arm of 29.1 Å that allows adequate biotin binding to avidin. The synthesis reaction was performed in 10 mM phosphate buffer, pH 7.5 (overnight incubation at 4° C.). Reaction products were purified by HPLC, and the mass of the biotin-labeled peptides checked by MALDI-TOF mass spectrometry. The octanol/water partition coefficient of maleimide-PEG2-biotin was determined experimentally by measuring the absorbance at 300 nm in the aqueous and octanol (previously pre-equilibrated with water) phases after a 2 h vortexing. A log P value of −1.07±0.02 was obtained. […] (Kuyper et al., 2006, J. Am. Chem. Soc. 128(10), 3233-40).
# HeLa cells [8] = type: cell-based, human; conditions: 1 uM, pH 6.2, 1.5 h
# [9] = Membrane affinity and insertion kinetics of variants Var1-16; type: physicochemical; conditions: relative to WT pHLIP
# [10] = type: in vitro ADME; conditions: pH 6.2
# JC cells = conditions: pH 6.1
# actin filaments = conditions: read-out: Kd, binding to actin filaments; cited from earlier work
# physchem [11] = test: physchem
# [12] = molecular target: Rabbit muscle actin, polymerized filamentous actin (F-actin) (rabbit) (UniProt P68135); test: fluorescence anisotropy (ex 570 nm / em 610 nm), titration of phallTxR by F-actin; value for unbound tracer
# [13] = molecular target: Rabbit muscle actin, polymerized filamentous actin (F-actin) (rabbit) (UniProt P68135); test: fluorescence anisotropy (ex 570 nm / em 610 nm), separate titration of phallTxR by F-actin without competitor; value for fully bound tracer
# tumor = conditions: in vivo
# physchem [14] = test: physchem; remark: listed apart in the source
# HeLa tumors = conditions: mouse, in vivo
# [15] = in vivo; cited from earlier work
compound,measurement,setting,value
H-GGEQNPIYWARYADWLFTTPLLLLDLALLVDADEGT-OH [pHLIP],interfacial helix formation time,[1],0.1 s
same,oligomer share of total population,[2],~6%
same,"recruitment of anti-DNP antibodies, pH 6.2 versus pH 7.4 (times more)",HeLa cells [3],not capable of significantly recruiting
same,inhibitory effect on HeLa proliferation,HeLa cells [4],no inhibition of proliferation was observed
same,toxic effects in mice,GFP fluorescent tumors,did not induce any toxic effects
same,pH range over which titration occurs,,~1 pH unit
same,adverse effects,[5],did not show any adverse effects
CC[C@H](C)[C@H](NC(=O)[C@@H]1CCCN1C(=O)[C@H](CC(N)=O)NC(=O)[C@H](CCC(N)=O)NC(=O)[C@H](CCC(=O)O)NC(=O)CNC(=O)CN)C(=O)N[C@@H](Cc1ccc(O)cc1)C(=O)N[C@@H](Cc1c[nH]c2ccccc12)C(=O)N[C@@H](C)C(=O)N[C@@H](CCC(N)=O)C(=O)N[C@@H](Cc1ccc(O)cc1)C(=O)N[C@@H](C)C(=O)N[C@@H](CC(=O)O)C(=O)N[C@@H](Cc1c[nH]c2ccccc12)C(=O)N[C@@H](CC(C)C)C(=O)N[C@@H](Cc1ccccc1)C(=O)N[C@H](C(=O)N[C@H](C(=O)N1CCC[C@H]1C(=O)N[C@@H](CC(C)C)C(=O)N[C@@H](CC(C)C)C(=O)N[C@@H](CC(C)C)C(=O)N[C@@H](CC(C)C)C(=O)N[C@@H](CC(=O)O)C(=O)N[C@@H](CC(C)C)C(=O)N[C@@H](C)C(=O)N[C@@H](CC(C)C)C(=O)N[C@@H](CC(C)C)C(=O)N[C@H](C(=O)N[C@@H](CC(=O)O)C(=O)N[C@@H](C)C(=O)N[C@@H](CC(=O)O)C(=O)N[C@@H](CCC(=O)O)C(=O)NCC(=O)N[C@H](C(=O)N[C@@H](CS)C(=O)NCC(=O)O)[C@@H](C)O)C(C)C)[C@@H](C)O)[C@@H](C)O [R11Q],Notes: solubility,[6],Has better solubility
O=C(CCCC[C@@H]1SC[C@@H]2NC(=O)N[C@@H]21)NCCOCCOCCNC(=O)CCN1C(=O)C=CC1=O [maleimide-PEG2-biotin],log P (octanol/water),[7],−1.07±0.02
"CC[C@H](C)[C@@H]1NC(=O)CNC(=O)[C@@H]2Cc3c([nH]c4cc(O)ccc34)[S@+]([O-])C[C@H](NC(=O)CNC1=O)C(=O)N[C@@H](CC(N)=O)C(=O)N1C[C@H](O)C[C@H]1C(=O)N[C@@H]([C@@H](C)[C@@H](O)CO)C(=O)N2 [amanitin, α-amanitin]",cell growth after treatment (ECIS),HeLa cells [8],continue to grow
WT-reverse (TEDADVLLALDLLLLPTTFLWDAYRAWYPNQECA),"Findings: Inserts into membrane, times faster than WT",[9],Inserts into membrane 10 times
CC[C@H](C)[C@H](NC(=O)[C@@H]1CCCN1C(=O)[C@H](CC(N)=O)NC(=O)[C@H](CCC(N)=O)NC(=O)[C@H](CCC(=O)O)NC(=O)[C@H](C)NC(=O)[C@H](C)NC(C)=O)C(=O)N[C@@H](Cc1ccc(O)cc1)C(=O)N[C@@H](Cc1c[nH]c2ccccc12)C(=O)N[C@@H](C)C(=O)N[C@@H](CCCNC(=N)N)C(=O)N[C@@H](Cc1ccc(O)cc1)C(=O)N[C@@H](C)C(=O)N[C@@H](CC(=O)O)C(=O)N[C@@H](Cc1c[nH]c2ccccc12)C(=O)N[C@@H](CC(C)C)C(=O)N[C@@H](Cc1ccccc1)C(=O)N[C@H](C(=O)N[C@H](C(=O)N1CCC[C@H]1C(=O)N[C@@H](CC(C)C)C(=O)N[C@@H](CC(C)C)C(=O)N[C@@H](CC(C)C)C(=O)N[C@@H](CC(C)C)C(=O)N[C@@H](CC(=O)O)C(=O)N[C@@H](CC(C)C)C(=O)N[C@@H](C)C(=O)N[C@@H](CC(C)C)C(=O)N[C@@H](CC(C)C)C(=O)N[C@H](C(=O)N[C@@H](CC(=O)O)C(=O)N[C@@H](C)C(=O)N[C@@H](CC(=O)O)C(=O)N[C@@H](CCC(=O)O)C(=O)NCC(=O)N[C@H](C(=O)N[C@@H](CCCCNC(=O)c1ccc(-c2c3ccc(N(C)C)cc3[o+]c3cc(N(C)C)ccc23)c(C(=O)[O-])c1)C(=O)N[C@@H](CSSCCC(=O)NC[C@](C)(O)C[C@@H]1NC(=O)[C@@H]2Cc3c([nH]c4ccccc34)SC[C@H](NC(=O)[C@@H]([C@H](C)O)NC(=O)[C@H](C)NC1=O)C(=O)N1C[C@@H](O)C[C@H]1C(=O)N[C@@H](C)C(=O)N2)C(=O)NCC(=O)O)[C@@H](C)O)C(C)C)[C@@H](C)O)[C@@H](C)O [pHLIP-K(rho)C(aph)],decomposition during cell incubation (HPLC),[10],no detectable decomposition
same,effect on cell growth,HeLa cells [4]; pH 7.4,did not have any effect on cell growth
same,inhibition of JC growth,JC cells,78%
same,inhibition of M4A4 proliferation,M4A4 cells; pH 6.2,92%
same,multinucleation,HeLa or M4A4 cells,became multinucleated
same,cytoskeletal immobilization on trypsinization / cytotoxic morphology,HeLa or M4A4 cells; pH 6.1,exhibited a reduced ability to contract
CC1NC(=O)C(CC(C)(O)CO)NC(=O)C2Cc3c([nH]c4ccccc34)SCC(NC(=O)C(C(C)O)NC1=O)C(=O)N1CC(O)CC1C(=O)NC(C)C(=O)N2 (stereo not drawn) [phalloidin] (cyclo([X1]ATC[Hyp]A[ξTrp(2-yl)]); thioether 4-7; configuration not given here),inhibitory effect on HeLa proliferation,HeLa cells [4],no inhibitory effect
same,inhibitory effect on M4A4 proliferation,M4A4 cells,no inhibitory effect
same,Kd,actin filaments,< 40 nM
same,logP,physchem [11],-1.5
Texas Red-X phalloidin (peptide),fluorescence anisotropy,[12],0.04
same,fluorescence anisotropy,[13],0.24
AAEQNPIYWARYADWLFTTGLLLLDLALLVDADEGT [P20G],Findings: biodistribution / blood clearance,tumor,Goes the liver
same,pKa,physchem [14],~6.7
gold nanoparticles,"amount of gold, Bladder",HeLa tumors,0.010 ± 0.094 % of injected dose per gram of tissue
same,"amount of gold, Blood",HeLa tumors,0.028 ± 0.028 % of injected dose per gram of tissue
same,"amount of gold, Heart",HeLa tumors,0.075 ± 0.010 % of injected dose per gram of tissue
same,"amount of gold, Intestine",HeLa tumors,0.034 ± 0.021 % of injected dose per gram of tissue
same,"amount of gold, Kidney",HeLa tumors,1.561 ± 0.098 % of injected dose per gram of tissue
same,"amount of gold, Liver",HeLa tumors,0.082 ± 0.082 % of injected dose per gram of tissue
same,"amount of gold, Lung",HeLa tumors,0.119 ± 0.025 % of injected dose per gram of tissue
same,"amount of gold, Muscle",HeLa tumors,1.836 ± 0.071 % of injected dose per gram of tissue
same,"amount of gold, Skin",HeLa tumors,0.129 ± 0.041 % of injected dose per gram of tissue
same,"amount of gold, Spleen",HeLa tumors,0.097 ± 0.039 % of injected dose per gram of tissue
same,"amount of gold, Stomach",HeLa tumors,0.012-30.011 % of injected dose per gram of tissue
same,"amount of gold, Bladder",HeLa tumors; iv,0.050 ± 0.050 % of injected dose per gram of tissue
same,"amount of gold, Blood",HeLa tumors; iv,0.091 ± 0.020 % of injected dose per gram of tissue
same,"amount of gold, Heart",HeLa tumors; iv,0.069 ± 0.004 % of injected dose per gram of tissue
same,"amount of gold, Intestine",HeLa tumors; iv,0.073 ± 0.002 % of injected dose per gram of tissue
same,"amount of gold, Kidney",HeLa tumors; iv,1.206 ± 0.078 % of injected dose per gram of tissue
same,"amount of gold, Liver",HeLa tumors; iv,0.392 ± 0.031 % of injected dose per gram of tissue
same,"amount of gold, Lung",HeLa tumors; iv,0.128 ± 0.000 % of injected dose per gram of tissue
same,"amount of gold, Muscle",HeLa tumors; iv,0.053 ± 0.005 % of injected dose per gram of tissue
same,"amount of gold, Skin",HeLa tumors; iv,0.204 ± 0.029 % of injected dose per gram of tissue
same,"amount of gold, Spleen",HeLa tumors; iv,0.089 ± 0.045 % of injected dose per gram of tissue
same,"amount of gold, Stomach",HeLa tumors; iv,0.081 ± 0.000 % of injected dose per gram of tissue
same,LD50,[15],approximately 3.2 g Au kg^−1
